# Read-outs that look alike come from different tables or passages of the source.
# Experiments:
# [1] = tested on: ovarian cancer lesion; experiment: Randomized, multicenter, open-label study: detection of ovarian cancer lesions under fluorescent light; assay type: in vivo, human
# Method: The safety and efficacy of the compositions disclosed herein was evaluated in a randomized, multicenter, open-label study. The study enrolled 178 women diagnosed with ovarian cancer or with high clinical suspicion of ovarian cancer scheduled to undergo primary surgical cytoreduction, interval debulking, or recurrent ovarian cancer surgery. One hundred and fifty women highly suspicious for or with confirmed ovarian cancer received a composition including pafolacianine (dosed at 0.025 mg/kg at least 1 hour before initiation of fluorescence imaging). Among them, 134 women with mean age 60 (range 33 to 81) years received both normal light imaging evaluation and fluorescence imaging evaluation (the Intent-to-Image set).
# The study assessed the proportion of patients with at least one evaluable ovarian cancer lesion confirmed by central pathology that was detected with compositions including pafolacianine under fluorescent light but not under normal light or palpation and not otherwise identified for resection prior to surgery. The detection proportion was estimated in women who underwent both normal light and fluorescent light (Intent-to-Image Set), see Table 1.
# [2] = target: T1, FR (Homo sapiens, UniProt P15328); experiment: [3H]-folic acid competition binding on KB cells
# T1 construct: KB cells (a derivative of HeLa cells) that over-express FR; endogenous in cells; host or cells: KB cells (HeLa derivative)
# [3] = tested on: panel of 55 pharmacologically-relevant receptors, ion channels and transporters; experiment: In vitro ligand binding screen (ExpresSProfile; Cerep); conditions: 5 μM
# Method: Pafolacianine (5 μM) was evaluated in an in vitro ligand binding screen (ExpresSProfile; Cerep 100010238), which assessed the potential for pafolacianine “off-target” binding to a broad panel of 55 pharmacologically-relevant receptors, ion channels and transporters.
# [4] = Repeat once-weekly IV dose toxicokinetics in dogs; assay type: in vivo; conditions: for half-life / AUC(0-inf) / AUC(0-t) / C0 / clearance / Vd: dog, in vivo; for Vd: read-out: Vss
# Method: Overall, drug concentrations increased with ascending dose, noting that the mean profiles at the two highest dose levels were overlapping. Systemic exposure (AUClast) to pafolacianine was approximately dose-proportional over the range of doses administered (0.9 to 13.9 mg/kg) and within the observed variability (Table 5). […] On both Day 0 and Day 13, CL was slow (relative to hepatic blood flow) and Vss was moderate. Mean T1/2 ranged from approximately 13 to 18 hours.
# [5] = Plasma protein binding, equilibrium dialysis, dog plasma; assay type: in vitro ADME; conditions: Beagle, read-out: mean (±SD) percentage of plasma protein bound (converted)
# Method: The plasma protein binding of pafolacianine was studied in vitro in fresh human, Sprague Dawley rat, and Beagle dog plasma using equilibrium dialysis. Pafolacianine was introduced into plasma samples, in duplicate, resulting in a final concentration of 5 μM. The mean (±SD) percentage of plasma protein bound pafolacianine was 99.1±0.1%, 98.6±0.1%, and 93.7±1.5% for rat, dog and human, respectively. Pafolacianine was highly bound to plasma protein in all species examined.
# [6] = Embryo-fetal development study in rats; assay type: in vivo
# Method: Pafolacianine was intravenously administered at doses of, during the period of organogenesis namely, 0.015, 0.15, and 1.5 mg/kg/day from gestational day (GD) 6 to GD17 in rats (human equivalent doses (HEDs) of 0.002, 0.024 and 0.242 mg/kg/day) and 0.3, 1, and 3 mg/kg/day from GD7 to GD20 in rabbits (HEDs of 0.097, 0.323 and 0.968 mg/kg/day). […] No-Observed-Adverse-Effect-Levels were 1.5 mg/kg/day in rats and 3 mg/kg/day in rabbits.
# [7] = female, iv, 0.9 mg/kg, dogs F, 0.9 mg/kg once-weekly IV, Day 0
# [8] = female, iv, 0.9 mg/kg, dogs F, 0.9 mg/kg once-weekly IV, Day 13
# [9] = female, iv, 9.3 mg/kg, dogs F, 9.3 mg/kg once-weekly IV, Day 0
# [10] = female, iv, 9.3 mg/kg, dogs F, 9.3 mg/kg once-weekly IV, Day 13
# [11] = female, iv, 13.9 mg/kg, dogs F, 13.9 mg/kg once-weekly IV, Day 0
# [12] = female, iv, 13.9 mg/kg, dogs F, 13.9 mg/kg once-weekly IV, Day 13
# [13] = male, iv, 0.9 mg/kg, dogs M, 0.9 mg/kg once-weekly IV, Day 0
# [14] = male, iv, 0.9 mg/kg, dogs M, 0.9 mg/kg once-weekly IV, Day 13
# [15] = male, iv, 9.3 mg/kg, dogs M, 9.3 mg/kg once-weekly IV, Day 0
# [16] = male, iv, 9.3 mg/kg, dogs M, 9.3 mg/kg once-weekly IV, Day 13
# [17] = male, iv, 13.9 mg/kg, dogs M, 13.9 mg/kg once-weekly IV, Day 0
# [18] = male, iv, 13.9 mg/kg, dogs M, 13.9 mg/kg once-weekly IV, Day 13
# T1 sequence (P15328 25-234): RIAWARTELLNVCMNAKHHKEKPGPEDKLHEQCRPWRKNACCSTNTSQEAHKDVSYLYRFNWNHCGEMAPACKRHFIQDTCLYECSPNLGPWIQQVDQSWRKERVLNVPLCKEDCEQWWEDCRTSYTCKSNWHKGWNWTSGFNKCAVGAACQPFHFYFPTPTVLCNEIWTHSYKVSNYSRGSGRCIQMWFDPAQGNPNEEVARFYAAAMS
compound,measurement,setting,value
CC1(C)C(=CC=C2CCCC(C=CC3=[N+](CCCCS(=O)(=O)[O-])c4ccc(S(=O)(=O)O)cc4C3(C)C)=C2Oc2ccc(CC(NC(=O)c3ccc(NCc4cnc5nc(N)[nH]c(=O)c5n4)cc3)C(=O)O)cc2)N(CCCCS(=O)(=O)O)c2ccc(S(=O)(=O)O)cc21 (stereo not shown) [pafolacianine],"Patients with at least one confirmed ovarian cancer evaluable lesion, Proportion (%)","[1]; detected under fluorescent light but not normal light or palpation, Intent-to-Image set N = 134, 0.025 mg/kg",0.269 (26.9%)
same,Patient-level false positive rate,"[1]; near-infrared fluorescent light, ovarian cancer lesions confirmed by central pathology",20.2%
same,competition with [3H]-folic acid for the receptor,[2],competed well
same,affinity to off-target proteins,[3],no significant affinity
same,half-life,"[4]; both sexes, intravenous, dogs, all doses and days, read-out: Mean T1/2 range",13 to 18 h
same,DN AUClast,"[4]; dogs F, 0.9 mg/kg once-weekly IV, Day 0",9.34 (μg · h/ml) (mg/kg)
same,DN AUClast,"[4]; dogs F, 0.9 mg/kg once-weekly IV, Day 13",7.36 (μg · h/ml) (mg/kg)
same,DN AUClast,"[4]; dogs F, 9.3 mg/kg once-weekly IV, Day 0",5.46 (μg · h/ml) (mg/kg)
same,DN AUClast,"[4]; dogs F, 9.3 mg/kg once-weekly IV, Day 13",6.21 (μg · h/ml) (mg/kg)
same,DN AUClast,"[4]; dogs F, 13.9 mg/kg once-weekly IV, Day 0",5.74 (μg · h/ml) (mg/kg)
same,DN AUClast,"[4]; dogs F, 13.9 mg/kg once-weekly IV, Day 13",6.81 (μg · h/ml) (mg/kg)
same,DN AUClast,"[4]; dogs M, 0.9 mg/kg once-weekly IV, Day 0",5.27 (μg · h/ml) (mg/kg)
same,DN AUClast,"[4]; dogs M, 0.9 mg/kg once-weekly IV, Day 13",5.64 (μg · h/ml) (mg/kg)
same,DN AUClast,"[4]; dogs M, 9.3 mg/kg once-weekly IV, Day 0",6.24 (μg · h/ml) (mg/kg)
same,DN AUClast,"[4]; dogs M, 9.3 mg/kg once-weekly IV, Day 13",7.03 (μg · h/ml) (mg/kg)
same,DN AUClast,"[4]; dogs M, 13.9 mg/kg once-weekly IV, Day 0",5.65 (μg · h/ml) (mg/kg)
same,DN AUClast,"[4]; dogs M, 13.9 mg/kg once-weekly IV, Day 13",6.18 (μg · h/ml) (mg/kg)
same,accumulation or changes in TK after repeated dosing,"[4]; dogs, once-weekly dosing for 3 weeks",no accumulation or changes in TK were evident
same,AUC(0-inf),[4]; [7],10500 ng·h/mL
same,AUC(0-t),[4]; [7],8400 ng·h/mL
same,C0,[4]; [7],4.75 µg/mL
same,clearance,[4]; [7],1.59 mL/min/kg
same,half-life,"[4]; female, iv, 0.9 mg/kg, dogs F, 0.9 mg/kg once-weekly IV, Day 0, read-out: T1/2 (converted)",15 h
same,Vd,[4]; [7],1.47 L/kg
same,AUC(0-inf),[4]; [8],8420 ng·h/mL
same,AUC(0-t),[4]; [8],6630 ng·h/mL
same,C0,[4]; [8],8.92 µg/mL
same,clearance,[4]; [8],1.8 mL/min/kg
same,half-life,"[4]; female, iv, 0.9 mg/kg, dogs F, 0.9 mg/kg once-weekly IV, Day 13, read-out: T1/2 (converted)",13.1 h
same,Vd,[4]; [8],1.49 L/kg
same,AUC(0-inf),[4]; [9],69300 ng·h/mL
same,AUC(0-t),[4]; [9],50800 ng·h/mL
same,C0,[4]; [9],54.9 µg/mL
same,clearance,[4]; [9],2.35 mL/min/kg
same,half-life,"[4]; female, iv, 9.3 mg/kg, dogs F, 9.3 mg/kg once-weekly IV, Day 0, read-out: T1/2 (converted)",15.2 h
same,Vd,[4]; [9],2.38 L/kg
same,AUC(0-inf),[4]; [10],76600 ng·h/mL
same,AUC(0-t),[4]; [10],57700 ng·h/mL
same,C0,[4]; [10],67.8 µg/mL
same,clearance,[4]; [10],2.11 mL/min/kg
same,half-life,"[4]; female, iv, 9.3 mg/kg, dogs F, 9.3 mg/kg once-weekly IV, Day 13, read-out: T1/2 (converted)",14.3 h
same,Vd,[4]; [10],1.94 L/kg
same,AUC(0-inf),[4]; [11],109000 ng·h/mL
same,AUC(0-t),[4]; [11],79800 ng·h/mL
same,C0,[4]; [11],79.6 µg/mL
same,clearance,[4]; [11],2.15 mL/min/kg
same,half-life,"[4]; female, iv, 13.9 mg/kg, dogs F, 13.9 mg/kg once-weekly IV, Day 0, read-out: T1/2 (converted)",15.3 h
same,Vd,[4]; [11],2.2 L/kg
same,AUC(0-inf),[4]; [12],129000 ng·h/mL
same,AUC(0-t),[4]; [12],94700 ng·h/mL
same,C0,[4]; [12],104 µg/mL
same,clearance,[4]; [12],1.81 mL/min/kg
same,half-life,"[4]; female, iv, 13.9 mg/kg, dogs F, 13.9 mg/kg once-weekly IV, Day 13, read-out: T1/2 (converted)",15.3 h
same,Vd,[4]; [12],1.83 L/kg
same,AUC(0-inf),[4]; [13],6400 ng·h/mL
same,AUC(0-t),[4]; [13],4740 ng·h/mL
same,C0,[4]; [13],4.66 µg/mL
same,clearance,[4]; [13],2.39 mL/min/kg
same,half-life,"[4]; male, iv, 0.9 mg/kg, dogs M, 0.9 mg/kg once-weekly IV, Day 0, read-out: T1/2 (converted)",14.8 h
same,Vd,[4]; [13],2.31 L/kg
same,AUC(0-inf),[4]; [14],7360 ng·h/mL
same,AUC(0-t),[4]; [14],5070 ng·h/mL
same,C0,[4]; [14],5.73 µg/mL
same,clearance,[4]; [14],2.09 mL/min/kg
same,half-life,"[4]; male, iv, 0.9 mg/kg, dogs M, 0.9 mg/kg once-weekly IV, Day 13, read-out: T1/2 (converted)",17.6 h
same,Vd,[4]; [14],2.42 L/kg
same,AUC(0-inf),[4]; [15],81200 ng·h/mL
same,AUC(0-t),[4]; [15],58000 ng·h/mL
same,C0,[4]; [15],62.1 µg/mL
same,clearance,[4]; [15],1.92 mL/min/kg
same,half-life,"[4]; male, iv, 9.3 mg/kg, dogs M, 9.3 mg/kg once-weekly IV, Day 0, read-out: T1/2 (converted)",16.4 h
same,Vd,[4]; [15],2.1 L/kg
same,AUC(0-inf),[4]; [16],85100 ng·h/mL
same,AUC(0-t),[4]; [16],65400 ng·h/mL
same,C0,[4]; [16],72.6 µg/mL
same,clearance,[4]; [16],1.84 mL/min/kg
same,half-life,"[4]; male, iv, 9.3 mg/kg, dogs M, 9.3 mg/kg once-weekly IV, Day 13, read-out: T1/2 (converted)",13.3 h
same,Vd,[4]; [16],1.6 L/kg
same,AUC(0-inf),[4]; [17],110000 ng·h/mL
same,AUC(0-t),[4]; [17],78500 ng·h/mL
same,C0,[4]; [17],81.8 µg/mL
same,clearance,[4]; [17],2.13 mL/min/kg
same,half-life,"[4]; male, iv, 13.9 mg/kg, dogs M, 13.9 mg/kg once-weekly IV, Day 0, read-out: T1/2 (converted)",16.2 h
same,Vd,[4]; [17],2.35 L/kg
same,AUC(0-inf),[4]; [18],117000 ng·h/mL
same,AUC(0-t),[4]; [18],85900 ng·h/mL
same,C0,[4]; [18],108 µg/mL
same,clearance,[4]; [18],2 mL/min/kg
same,half-life,"[4]; male, iv, 13.9 mg/kg, dogs M, 13.9 mg/kg once-weekly IV, Day 13, read-out: T1/2 (converted)",15 h
same,Vd,[4]; [18],2.02 L/kg
same,fraction unbound at 5 μM,[5],0.014
same,Estimated systemic exposure relative to human exposure at 0.025 mg/kg (AUC comparison),[6]; rat,158 times
same,maternal toxicity and embryo-fetal development toxicity,"[6]; rats, 0.015, 0.15, 1.5 mg/kg/day IV",No significant drug-related maternal toxicity and embryo-fetal development toxicity
same,No-Observed-Adverse-Effect-Level,"[6]; rats, IV, GD6 to GD17",1.5 mg/kg/day

# Reference: patent US11986540B2, “Compositions including pafolacianine for the identification of malignant lesions” (ON TARGET LABORATORIES, LLC., priority 2022, dated 2024)
